Experimental data from US5300629A, “Bactericidal and/or bacteriostatic peptides isolated from hemolymph of honeybees” (Plant Genetic Systems, N.V., priority 1987, dated 1994).
Values after ≈ are worked out from the molar mass of the structure shown. Where a SMILES comes first, the peptide text is derived from it.

What was measured:
E. coli NCTC 9001 [1] = assay type: cell-based; settings: NCTC 9001, 72 h
Method: Whole lymph or purified components, resuspended in PBS to a final volume equal to the starting material (heated lymph), was applied in 3 mm wells on agar plates seeded with the test organisms. Antibacterial activity was determined by measuring the growth-inhibition zones (in mm).
Test conditions: agar inhibition zone obtained with 10 namomole apidaecin, resuspended in 20 μl H2 O/well.

E. coli NCTC 9001 [2] = assay: Bactericidal activity, method not stated; assay type: cell-based; settings: lyophilized apidaecins resuspended in PBS
[3] = system: Erwinia carotovora var carotovora NCPPB 312; assay: Minimal inhibitory concentration in liquid culture; assay type: cell-based; settings: 200 μl rich medium, 10^4 log-phase bacteria
[4] = system: Salmonella typhimurium ATCC 23565; assay: Minimal inhibitory concentration in liquid culture; assay type: cell-based; settings: 200 μl rich medium, 10^4 log-phase bacteria
[5] = system: Xanthomonas campestris pv. campestris A 902; assay: Minimal inhibitory concentration in liquid culture; assay type: cell-based; settings: 200 μl rich medium, 10^4 log-phase bacteria, + = no inhibition at maximal value
[6] = system: Pseudomonas syringae pv. tomato NCPPB 1106; assay: Minimal inhibitory concentration in liquid culture; assay type: cell-based; settings: 200 μl rich medium, 10^4 log-phase bacteria
[7] = system: Bacillus megaterium QB 1551; assay: Minimal inhibitory concentration in liquid culture; assay type: cell-based; settings: 200 μl rich medium, 10^4 log-phase bacteria, + = no inhibition at maximal value
Salmonella Newport CD 94 = assay: Minimal inhibitory concentration in liquid culture; assay type: cell-based; settings: 200 μl rich medium, 10^4 log-phase bacteria
[8] = system: Pseudomonas syringae pv. maculicola NCPPB 1776; assay: Minimal inhibitory concentration in liquid culture; assay type: cell-based; settings: 200 μl rich medium, 10^4 log-phase bacteria
[9] = system: Escherichia coli NCTC 9001; assay: Minimal inhibitory concentration in liquid culture; assay type: cell-based; settings: 200 μl rich medium, 10^4 log-phase bacteria
[10] = system: Citrobacter freundii ATCC 8090; assay: Minimal inhibitory concentration in liquid culture; assay type: cell-based; settings: 200 μl rich medium, 10^4 log-phase bacteria
Shigella flexneri CP 87 = assay: Minimal inhibitory concentration in liquid culture; assay type: cell-based; settings: 200 μl rich medium, 10^4 log-phase bacteria
Method: (§1) In addition the exact concentration was determined precisely by amino-acid analysis and an equal sample of natural Bee 6b was prepared, allowing to compare the bactericidal activity of both natural and synthetic apidaecins by means of growth inhibition assays in liquid cultures (see mat & Meth.). The minimal inhibitory concentrations (μg/ml) were determined in liquid culture : 200 μl of a rich medium (trypticase soy broth or nutrient broth) was inoculated with 10^4 log-phase bacteria. Peptide concentrations ranged between 0 and 200 μg/ml. The values express μg/ml; when no inhibition was noticed the maximal values are given (+200 μg/ml or +50 μg/ml). All peptides were chemically synthesized, except for bee 6b which is purified from bee lymph.

[11] = system: Corynebacterium insidiosum NCPPB 1109; assay: Minimal inhibitory concentration in liquid culture; assay type: cell-based; settings: 200 μl rich medium, 10^4 log-phase bacteria
Method: as §1

[12] = system: Corynebacterium michiganense pv. michiganense NCPPB 1573; assay: Minimal inhibitory concentration in liquid culture; assay type: cell-based; settings: 200 μl rich medium, 10^4 log-phase bacteria, + = no inhibition at maximal value
Method: as §1

[13] = system: Xanthomonas campestris pv. vesicatoria LMG 905; assay: Minimal inhibitory concentration in liquid culture; assay type: cell-based; settings: 200 μl rich medium, 10^4 log-phase bacteria, + = no inhibition at maximal value
Method: as §1

[14] = system: Pseudomonas syringae pv. tabaci NCPPB 1237; assay: Minimal inhibitory concentration in liquid culture; assay type: cell-based; settings: 200 μl rich medium, 10^4 log-phase bacteria
[15] = system: Erwinia salicis NCPPB 2530; assay: Minimal inhibitory concentration in liquid culture; assay type: cell-based; settings: 200 μl rich medium, 10^4 log-phase bacteria
[16] = system: Erwinia carotovora var atroseptica LMG 2385; assay: Minimal inhibitory concentration in liquid culture; assay type: cell-based; settings: 200 μl rich medium, 10^4 log-phase bacteria
[17] = system: Rhizobium meliloti ZB 314; assay: Minimal inhibitory concentration in liquid culture; assay type: cell-based; settings: 200 μl rich medium, 10^4 log-phase bacteria
[18] = system: Agrobactierium tumefaciens DSM 3129; assay: Minimal inhibitory concentration in liquid culture; assay type: cell-based; settings: 200 μl rich medium, 10^4 log-phase bacteria
[19] = system: Pseudomonas solanacearum ATCC 11696; assay type: cell-based; settings: 200 μl rich medium, 10^4 log-phase bacteria

CC[C@H](C)[C@H](NC(=O)[C@@H](N)Cc1ccc(O)cc1)C(=O)N1CCC[C@H]1C(=O)N[C@@H](CCC(N)=O)C(=O)N1CCC[C@H]1C(=O)N[C@@H](CCCNC(=N)N)C(=O)N1CCC[C@H]1C(=O)N1CCC[C@H]1C(=O)N[C@@H](Cc1c[nH]cn1)C(=O)N1CCC[C@H]1C(=O)N[C@@H](CCCNC(=N)N)C(=O)N[C@@H](CC(C)C)C(=O)O [Apid IB6, Y-I-P-Q-P-R-P-P-H-P-R-L] (H-YIPQPRPPHPRL-OH)
agar inhibition zone (E. coli NCTC 9001 [1]): 9 mm

CC[C@H](C)[C@H](NC(=O)[C@H](Cc1ccc(O)cc1)NC(=O)[C@@H](NC(=O)[C@@H]1CCCN1C(=O)[C@H](CCCNC(=N)N)NC(=O)[C@@H](N)CC(N)=O)C(C)C)C(=O)N1CCC[C@H]1C(=O)N[C@@H](CCC(N)=O)C(=O)N1CCC[C@H]1C(=O)N[C@@H](CCCNC(=N)N)C(=O)N1CCC[C@H]1C(=O)N1CCC[C@H]1C(=O)N[C@@H](Cc1c[nH]cn1)C(=O)N1CCC[C@H]1C(=O)N[C@@H](CCCNC(=N)N)C(=O)N[C@@H](CC(C)C)C(=O)O [Apid Ib2, N-R-P-V-Y-I-P-Q-P-R-P-P-H-P-R-L] (H-NRPVYIPQPRPPHPRL-OH)
agar inhibition zone (E. coli NCTC 9001 [1]): 16 mm

CC[C@H](C)[C@H](NC(=O)[C@H](Cc1ccc(O)cc1)NC(=O)[C@@H](NC(=O)[C@@H]1CCCN1)C(C)C)C(=O)N1CCC[C@H]1C(=O)N[C@@H](CCC(N)=O)C(=O)N1CCC[C@H]1C(=O)N[C@@H](CCCNC(=N)N)C(=O)N1CCC[C@H]1C(=O)N1CCC[C@H]1C(=O)N[C@@H](Cc1c[nH]cn1)C(=O)N1CCC[C@H]1C(=O)N[C@@H](CCCNC(=N)N)C(=O)N[C@@H](CC(C)C)C(=O)O [Apid Ib4, P-V-Y-I-P-Q-P-R-P-P-H-P-R-L] (H-PVYIPQPRPPHPRL-OH)
agar inhibition zone (E. coli NCTC 9001 [1]): 14 mm

CC[C@H](C)[C@H](NC(=O)[C@H](Cc1ccc(O)cc1)NC(=O)[C@@H](NC(=O)[C@@H]1CCCN1C(=O)[C@H](CCCNC(=N)N)NC(=O)[C@H](CC(N)=O)NC(=O)[C@H](CC(N)=O)NC(=O)CN)C(C)C)C(=O)N1CCC[C@H]1C(=O)N[C@@H](CCC(N)=O)C(=O)N1CCC[C@H]1C(=O)N[C@@H](CCCNC(=N)N)C(=O)N1CCC[C@H]1C(=O)N1CCC[C@H]1C(=O)N[C@@H](Cc1c[nH]cn1)C(=O)N1CCC[C@H]1C(=O)N[C@@H](CCCNC(=N)N)C(=O)N[C@@H](CC(C)C)C(=O)O [Apid Ib] (H-GNNRPVYIPQPRPPHPRL-OH)
agar inhibition zone (E. coli NCTC 9001 [1]): 18 mm | bactericidal activity (E. coli NCTC 9001 [2]): possessed a bactericidal activity

CC[C@H](C)[C@H](NC(=O)[C@H](CCCNC(=N)N)NC(=O)[C@@H]1CCCN1C(=O)[C@H](Cc1c[nH]cn1)NC(=O)[C@@H]1CCCN1C(=O)[C@@H]1CCCN1C(=O)[C@H](CCCNC(=N)N)NC(=O)[C@@H]1CCCN1C(=O)[C@H](CCC(N)=O)NC(=O)[C@@H]1CCCN1C(=O)[C@@H](NC(=O)[C@H](Cc1ccc(O)cc1)NC(=O)[C@@H](NC(=O)[C@@H]1CCCN1C(=O)[C@H](CCCNC(=N)N)NC(=O)[C@H](CC(N)=O)NC(=O)[C@H](CC(N)=O)NC(=O)[C@H](CC(N)=O)NC(=O)CN)C(C)C)[C@@H](C)CC)C(=O)O [Apid NT+1] (H-GNNNRPVYIPQPRPPHPRI-OH)
minimal inhibitory concentration [3]: 2.5 µg/mL (≈ 1.12 µM) | minimal inhibitory concentration [4]: 0.1 µg/mL (≈ 0.045 µM) | minimal inhibitory concentration [5]: > 50 µg/mL | minimal inhibitory concentration [6]: 1 µg/mL (≈ 0.45 µM) | minimal inhibitory concentration [7]: 100 µg/mL | minimal inhibitory concentration (Salmonella Newport CD 94): 1 µg/mL (≈ 0.45 µM) | minimal inhibitory concentration [8]: 2.5 µg/mL (≈ 1.12 µM) | minimal inhibitory concentration [9]: 0.2 µg/mL (≈ 0.09 µM) | minimal inhibitory concentration [10]: 0.2 µg/mL (≈ 0.09 µM) | minimal inhibitory concentration (Shigella flexneri CP 87): 0.1 µg/mL (≈ 0.045 µM) | minimal inhibitory concentration [11]: 100 µg/mL (≈ 45 µM) | minimal inhibitory concentration [12]: > 50 µg/mL | minimal inhibitory concentration [13]: > 50 µg/mL | minimal inhibitory concentration [14]: 2.5 µg/mL (≈ 1.12 µM) | minimal inhibitory concentration [15]: 0.02 µg/mL (≈ 0.009 µM) | bactericidal activity (E. coli NCTC 9001 [2]): possessed a bactericidal activity | minimal inhibitory concentration [16]: 1 µg/mL (≈ 0.45 µM) | minimal inhibitory concentration [17]: 0.1 µg/mL (≈ 0.045 µM) | minimal inhibitory concentration [18]: 0.2 µg/mL (≈ 0.09 µM) | minimal inhibitory concentration [19]: 25 µg/mL (≈ 11.2 µM)

CC[C@H](C)[C@H](NC(=O)[C@H](Cc1ccc(O)cc1)NC(=O)[C@@H](NC(=O)[C@@H]1CCCN1C(=O)[C@H](CCCNC(=N)N)NC(=O)[C@H](CC(N)=O)NC(=O)[C@H](CC(N)=O)NC(=O)CN)C(C)C)C(=O)N[C@@H](CCC(N)=O)C(=O)N1CCC[C@H]1C(=O)N[C@@H](CCCNC(=N)N)C(=O)N1CCC[C@H]1C(=O)N1CCC[C@H]1C(=O)N[C@@H](Cc1c[nH]cn1)C(=O)N1CCC[C@H]1C(=O)N[C@@H](CCCNC(=N)N)C(=O)N[C@@H](CC(C)C)C(=O)O [Apid PT-1] (H-GNNRPVYIQPRPPHPRL-OH)
minimal inhibitory concentration [4]: 5 µg/mL (≈ 2.49 µM) | minimal inhibitory concentration [6]: 0.1 µg/mL (≈ 0.0497 µM) | minimal inhibitory concentration [7]: 150 µg/mL | minimal inhibitory concentration (Salmonella Newport CD 94): 5 µg/mL (≈ 2.49 µM) | minimal inhibitory concentration [9]: 5 µg/mL (≈ 2.49 µM) | minimal inhibitory concentration [10]: 5 µg/mL (≈ 2.49 µM) | minimal inhibitory concentration (Shigella flexneri CP 87): 0.5 µg/mL (≈ 0.249 µM) | minimal inhibitory concentration [15]: 0.05 µg/mL (≈ 0.0249 µM) | bactericidal activity (E. coli NCTC 9001 [2]): possessed a bactericidal activity | minimal inhibitory concentration [17]: 0.02 µg/mL (≈ 0.00994 µM) | minimal inhibitory concentration [18]: 0.5 µg/mL (≈ 0.249 µM)

CC[C@H](C)[C@H](NC(=O)[C@H](Cc1ccc(O)cc1)NC(=O)[C@@H](NC(=O)[C@@H]1CCCN1C(=O)[C@H](CCCNC(=N)N)NC(=O)[C@H](CC(N)=O)NC(=O)[C@H](CC(N)=O)NC(=O)CN)C(C)C)C(=O)N1CCC[C@H]1C(=O)N[C@@H](CCC(N)=O)C(=O)N1CCC[C@H]1C(=O)N[C@@H](CCCNC(=N)N)C(=O)N1CCC[C@H]1C(=O)N1CCC[C@H]1C(=O)N[C@@H](Cc1cnc[nH]1)C(=O)N1CCC[C@H]1C(=O)N[C@@H](CCCNC(=N)N)C(=O)N[C@@H](CC(C)C)C(=O)O [bee 6b] (H-GNNRPVYIPQPRPPHPRL-OH)
cell division and callus formation (Tobacco leaf protoplasts; after immobilization in low melting agarose): normal cell division and callus formation occured | visible effects during incubation (Tobacco leaf protoplasts; tobacco leaf protoplasts 10^6 cells/ml, 2 days, 10 ng/ml up to 50 μg/ml): no visible effects were observed
